Values quoted from earlier work as cited in patent US20230349886A1, “SYSTEMS AND METHODS FOR PREDICTING CARDIOTOXICITY OF MOLECULAR PARAMETERS OF A COMPOUND BASED ON MACHINE LEARNING ALGORITHMS” (UTI Limited Partnership, priority 2015, published 2023).
Where two headings read alike, the source gives them in different places.

How the values were obtained:
Cav1.2 = Cav1.2 (Homo sapiens, UniProt Q13936); as to CAV1.2 max inhib: test concentration or dose not given here
hERG = hERG (Homo sapiens, UniProt Q12809); as to HERG maxInhib: test concentration or dose not given here
Chain of hERG (Q12809 whole entry): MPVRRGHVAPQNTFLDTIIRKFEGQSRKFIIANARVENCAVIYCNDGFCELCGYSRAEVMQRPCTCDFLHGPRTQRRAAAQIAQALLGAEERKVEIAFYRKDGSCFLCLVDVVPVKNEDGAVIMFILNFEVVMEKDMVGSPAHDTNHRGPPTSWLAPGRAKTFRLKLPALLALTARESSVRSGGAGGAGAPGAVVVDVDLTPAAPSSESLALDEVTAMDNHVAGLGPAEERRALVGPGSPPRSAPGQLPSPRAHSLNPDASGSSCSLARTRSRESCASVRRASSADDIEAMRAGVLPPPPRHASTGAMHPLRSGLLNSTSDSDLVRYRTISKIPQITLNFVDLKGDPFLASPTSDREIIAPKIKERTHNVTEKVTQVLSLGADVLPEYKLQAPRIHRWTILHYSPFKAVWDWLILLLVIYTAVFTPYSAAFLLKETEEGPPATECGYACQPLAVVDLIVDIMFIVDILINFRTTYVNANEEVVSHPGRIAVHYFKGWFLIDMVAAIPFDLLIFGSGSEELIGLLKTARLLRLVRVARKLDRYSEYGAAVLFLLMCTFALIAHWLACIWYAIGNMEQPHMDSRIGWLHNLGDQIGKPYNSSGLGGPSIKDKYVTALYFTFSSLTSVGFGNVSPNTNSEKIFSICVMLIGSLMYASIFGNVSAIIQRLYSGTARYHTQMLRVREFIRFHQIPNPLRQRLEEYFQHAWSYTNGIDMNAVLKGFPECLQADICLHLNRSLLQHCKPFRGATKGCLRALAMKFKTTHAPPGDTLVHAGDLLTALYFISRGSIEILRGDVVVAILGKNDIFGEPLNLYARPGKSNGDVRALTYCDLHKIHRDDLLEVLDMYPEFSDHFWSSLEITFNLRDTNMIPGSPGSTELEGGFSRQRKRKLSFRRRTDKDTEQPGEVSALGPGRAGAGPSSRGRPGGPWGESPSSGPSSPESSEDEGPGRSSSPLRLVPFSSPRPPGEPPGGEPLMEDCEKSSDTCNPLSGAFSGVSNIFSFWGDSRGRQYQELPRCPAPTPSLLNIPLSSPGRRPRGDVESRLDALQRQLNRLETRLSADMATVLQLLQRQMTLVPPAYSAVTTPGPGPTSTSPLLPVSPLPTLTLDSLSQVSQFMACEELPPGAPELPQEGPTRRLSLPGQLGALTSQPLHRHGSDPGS

Nav1.5 = Nav1.5 (Homo sapiens, UniProt Q14524); as to NAV1.5 max inhib: test concentration or dose not given here
[1] = Brown dataset; flag given as 1 or 0
[2] = Table 11, calculated from HERG-IC50 of the Kramer et al. 2013 data
[3] = read-out: HERG IC50, Brown dataset
[4] = read-out: NAV1.5 IC50, Brown dataset
[5] = read-out: CAV1.2 IC50, Brown dataset
[6] = experimental data, Kramer et al. 2013
[7] = maximal inhibition, Kramer et al. 2013

Chain of Cav1.2 (Q13936 1-2138 isoform Q13936-12): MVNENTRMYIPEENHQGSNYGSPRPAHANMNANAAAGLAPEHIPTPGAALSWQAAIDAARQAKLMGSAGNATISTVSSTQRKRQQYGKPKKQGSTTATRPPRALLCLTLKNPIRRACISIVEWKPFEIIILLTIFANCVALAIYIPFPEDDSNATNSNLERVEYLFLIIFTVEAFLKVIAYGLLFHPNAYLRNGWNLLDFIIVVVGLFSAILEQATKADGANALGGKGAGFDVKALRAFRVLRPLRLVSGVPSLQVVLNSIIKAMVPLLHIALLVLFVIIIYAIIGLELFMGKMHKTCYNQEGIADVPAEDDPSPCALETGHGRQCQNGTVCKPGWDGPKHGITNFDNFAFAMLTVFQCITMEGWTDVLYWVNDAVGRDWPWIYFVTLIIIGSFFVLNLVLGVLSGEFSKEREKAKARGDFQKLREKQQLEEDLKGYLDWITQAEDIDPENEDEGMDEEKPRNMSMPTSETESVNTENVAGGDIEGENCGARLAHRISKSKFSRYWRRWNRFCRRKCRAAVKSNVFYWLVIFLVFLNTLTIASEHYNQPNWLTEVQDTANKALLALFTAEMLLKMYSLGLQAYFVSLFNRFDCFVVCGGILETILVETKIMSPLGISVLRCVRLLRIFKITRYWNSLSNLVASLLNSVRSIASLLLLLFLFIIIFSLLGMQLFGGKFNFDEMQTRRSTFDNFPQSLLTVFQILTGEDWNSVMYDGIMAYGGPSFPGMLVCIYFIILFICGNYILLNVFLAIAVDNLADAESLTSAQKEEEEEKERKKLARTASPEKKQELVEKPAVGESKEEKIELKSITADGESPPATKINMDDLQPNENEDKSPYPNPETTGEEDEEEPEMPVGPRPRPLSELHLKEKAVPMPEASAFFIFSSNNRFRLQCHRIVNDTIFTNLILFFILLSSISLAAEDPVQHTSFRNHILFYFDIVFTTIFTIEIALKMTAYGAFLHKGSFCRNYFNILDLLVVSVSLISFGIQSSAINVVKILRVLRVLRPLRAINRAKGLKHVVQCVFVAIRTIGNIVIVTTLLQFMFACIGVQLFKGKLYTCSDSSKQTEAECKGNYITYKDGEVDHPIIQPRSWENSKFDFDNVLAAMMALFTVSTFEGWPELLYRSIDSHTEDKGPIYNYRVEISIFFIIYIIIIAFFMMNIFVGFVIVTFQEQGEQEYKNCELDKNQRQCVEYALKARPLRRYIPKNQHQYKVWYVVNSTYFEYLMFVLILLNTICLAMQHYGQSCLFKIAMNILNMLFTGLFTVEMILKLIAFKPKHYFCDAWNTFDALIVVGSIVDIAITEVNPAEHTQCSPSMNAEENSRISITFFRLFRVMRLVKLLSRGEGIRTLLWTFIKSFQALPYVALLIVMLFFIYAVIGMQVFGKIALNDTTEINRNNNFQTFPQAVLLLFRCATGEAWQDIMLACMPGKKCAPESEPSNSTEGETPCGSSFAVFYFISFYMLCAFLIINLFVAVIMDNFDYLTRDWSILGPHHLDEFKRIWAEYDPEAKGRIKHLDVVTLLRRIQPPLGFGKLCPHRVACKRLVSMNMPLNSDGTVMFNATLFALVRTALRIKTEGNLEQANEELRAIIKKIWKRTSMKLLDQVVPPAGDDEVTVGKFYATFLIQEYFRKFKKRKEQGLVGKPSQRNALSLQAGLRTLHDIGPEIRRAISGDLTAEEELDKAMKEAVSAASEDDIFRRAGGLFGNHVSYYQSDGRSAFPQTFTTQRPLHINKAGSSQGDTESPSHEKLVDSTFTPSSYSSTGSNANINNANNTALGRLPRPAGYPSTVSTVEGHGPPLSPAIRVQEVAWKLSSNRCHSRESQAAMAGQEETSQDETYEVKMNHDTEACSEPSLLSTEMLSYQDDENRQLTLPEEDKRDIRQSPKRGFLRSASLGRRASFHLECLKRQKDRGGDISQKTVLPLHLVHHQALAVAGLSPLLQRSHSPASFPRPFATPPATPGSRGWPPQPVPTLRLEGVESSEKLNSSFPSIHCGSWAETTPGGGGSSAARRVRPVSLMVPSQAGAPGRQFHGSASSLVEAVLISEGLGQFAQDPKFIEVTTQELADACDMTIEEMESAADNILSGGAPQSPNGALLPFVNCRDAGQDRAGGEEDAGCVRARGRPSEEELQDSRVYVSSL
Chain of Cav1.2 (Q08289 whole entry partner): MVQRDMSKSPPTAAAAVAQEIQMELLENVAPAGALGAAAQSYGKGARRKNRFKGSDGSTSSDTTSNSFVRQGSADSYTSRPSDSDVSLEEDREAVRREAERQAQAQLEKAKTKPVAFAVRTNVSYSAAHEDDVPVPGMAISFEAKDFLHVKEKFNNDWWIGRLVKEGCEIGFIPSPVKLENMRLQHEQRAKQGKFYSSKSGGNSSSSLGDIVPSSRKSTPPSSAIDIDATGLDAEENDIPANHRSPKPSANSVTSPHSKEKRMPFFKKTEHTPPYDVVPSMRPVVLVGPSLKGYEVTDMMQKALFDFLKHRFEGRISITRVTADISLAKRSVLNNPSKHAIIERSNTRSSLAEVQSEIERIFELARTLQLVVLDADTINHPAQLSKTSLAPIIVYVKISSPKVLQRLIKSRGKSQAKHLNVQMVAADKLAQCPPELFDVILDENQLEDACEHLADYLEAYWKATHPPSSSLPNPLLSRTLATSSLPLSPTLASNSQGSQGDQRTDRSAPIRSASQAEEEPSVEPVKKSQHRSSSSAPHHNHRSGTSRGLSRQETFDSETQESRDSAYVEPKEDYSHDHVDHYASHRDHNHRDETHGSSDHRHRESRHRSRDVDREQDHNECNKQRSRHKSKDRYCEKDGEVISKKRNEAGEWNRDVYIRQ
Chain of Cav1.2 (P54289 25-946 partner limits assumed): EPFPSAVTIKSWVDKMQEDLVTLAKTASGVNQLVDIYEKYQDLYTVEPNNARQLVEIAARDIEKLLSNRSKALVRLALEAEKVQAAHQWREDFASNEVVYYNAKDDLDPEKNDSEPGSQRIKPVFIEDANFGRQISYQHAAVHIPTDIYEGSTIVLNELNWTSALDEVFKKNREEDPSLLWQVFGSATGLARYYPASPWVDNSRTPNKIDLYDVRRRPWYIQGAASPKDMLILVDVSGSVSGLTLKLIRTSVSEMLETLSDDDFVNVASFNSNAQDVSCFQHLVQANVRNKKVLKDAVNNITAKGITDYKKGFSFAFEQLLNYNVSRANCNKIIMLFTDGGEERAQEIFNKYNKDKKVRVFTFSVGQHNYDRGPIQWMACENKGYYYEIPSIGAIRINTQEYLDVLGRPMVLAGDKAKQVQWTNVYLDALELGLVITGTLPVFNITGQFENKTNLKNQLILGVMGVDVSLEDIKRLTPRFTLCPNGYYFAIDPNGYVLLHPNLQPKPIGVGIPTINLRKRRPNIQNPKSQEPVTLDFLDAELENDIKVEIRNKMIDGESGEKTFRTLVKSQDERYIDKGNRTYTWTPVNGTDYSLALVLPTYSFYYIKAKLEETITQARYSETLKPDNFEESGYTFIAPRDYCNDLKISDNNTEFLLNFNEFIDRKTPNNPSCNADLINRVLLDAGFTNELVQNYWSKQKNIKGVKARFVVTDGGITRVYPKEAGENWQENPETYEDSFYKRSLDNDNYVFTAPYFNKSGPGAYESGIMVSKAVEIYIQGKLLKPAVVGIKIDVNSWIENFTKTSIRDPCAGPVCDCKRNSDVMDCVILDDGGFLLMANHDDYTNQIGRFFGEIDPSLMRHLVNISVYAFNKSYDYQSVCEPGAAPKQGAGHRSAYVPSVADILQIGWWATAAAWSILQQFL
Chain of Cav1.2 (P54289 947-1103 partner limits assumed): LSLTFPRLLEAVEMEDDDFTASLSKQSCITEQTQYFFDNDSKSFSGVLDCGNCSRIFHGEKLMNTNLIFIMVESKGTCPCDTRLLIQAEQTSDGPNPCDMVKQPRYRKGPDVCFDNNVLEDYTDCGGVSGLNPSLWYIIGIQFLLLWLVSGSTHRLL

| Compound | CAV1.2 max inhib (Cav1.2; Brown dataset) | HERG maxInhib (hERG; Brown dataset) | NAV1.5 max inhib (Nav1.5; Brown dataset) | IC50 (Nav1.5; [4]) [µM] | Ris (TdP risk flag) [1] | IC50 (Cav1.2; [5]) [µM] | further results |
| --- | --- | --- | --- | --- | --- | --- | --- |
| Cc1cn(-c2cc(NC(=O)c3ccc(C)c(Nc4nccc(-c5cccnc5)n4)c3)cc(C(F)(F)F)c2)cn1 [nilotinib] | 32.4 |  |  |  |  |  |  |
| CCOC(=O)C1=C(C)NC(C)=C(C(=O)OC)C1c1cccc([N+](=O)[O-])c1 (centres unmarked) [nitrendipine] | 74.6 | 68.3 | 86.3 | 21.6 | 0 |  | pIC50 (hERG; [2]): 4.609; IC50 (hERG; [3]): 24.6 µM |
| Cc1nc2n(c(=O)c1CCN1CCC(c3noc4cc(F)ccc34)CC1)CCCC2O (centres unmarked) [paliperidone] | 33.1 |  | 51.2 | 109 | 1 | 194 |  |
| CCCC(C)C1(CC)C(=O)NC(=O)NC1=O (centres unmarked) [pentobarbital] | 82.1 |  | 9 | 2690 | 0 | 299 | HERG maxInhib (hERG): 39.5; HERG pIC50 (hERG): 2.843 135; IC50 (hERG): 1430 µM; pIC50 (hERG): 2.843 |
| O=c1[nH]c2ccccc2n1C1CCN(CCCC(c2ccc(F)cc2)c2ccc(F)cc2)CC1 [pimozide] | 88.1 |  |  |  | 1 |  | HERG maxInhib (hERG): 91.3 |
| CCN1CCN(C(=O)N[C@@H](C(=O)N[C@@H]2C(=O)N3[C@@H]2SC(C)(C)[C@@H]3C(=O)O)c2ccccc2)C(=O)C1=O [piperacillin] | 15.9 |  | 9.7 | 2430 |  | 1230 |  |
| CCN(CC)CCNC(=O)c1ccc(N)cc1 [procainamide] |  | 50.7 |  |  |  |  |  |
| C=C[C@H]1C[N@@]2CC[C@H]1C[C@@H]2[C@@H](O)c1ccnc2ccc(OC)cc12 [quinidine] | 58 |  | 97.5 |  | 1 |  |  |
| NC(=O)c1ncn([C@@H]2O[C@H](CO)[C@@H](O)[C@H]2O)n1 [ribavirin] | 31.9 | 21.4 | 6.9 | 3000 | 0 | 622 | pIC50 (hERG; [2]): 3.015; IC50 (hERG; [3]): 967 µM |
| CC(C)(C)NC(=O)[C@@H]1C[C@@H]2CCCC[C@@H]2CN1C[C@@H](O)[C@H](Cc1ccccc1)NC(=O)[C@H](CC(N)=O)NC(=O)c1ccc2ccccc2n1 [saquinavir] |  | 73.1 |  |  |  |  | pIC50 (hERG; [2]): 4.772; IC50 (hERG; [3]): 16.9 µM |
| O=C1NCCN1CCN1CCC(c2cn(-c3ccc(F)cc3)c3ccc(Cl)cc23)CC1 [sertindole] | 91.5 |  | 95.5 | 6.9 | 1 | 6.3 |  |
| N[C@@H](CC(=O)N1CCn2c(nnc2C(F)(F)F)C1)Cc1cc(F)c(F)cc1F [sitagliptin] | 35.8 | 35.6 | 18.3 | 1220 | 0 | 147 |  |
| O=C(O[C@H]1CN2CCC1CC2)N1CCc2ccccc2[C@@H]1c1ccccc1 [solifenacin] | 96.4 |  | 100 |  |  |  |  |
| C[C@@H]1CN(c2c(F)c(N)c3c(=O)c(C(=O)O)cn(C4CC4)c3c2F)C[C@H](C)N1 [sparfloxacin] | 50.3 |  | 0.8 | 2560 | 1 | 88.8 | HERG maxInhib (hERG): 81.5; HERG pIC50 (hERG): 4.656 726; IC50 (hERG): 22.1 µM; pIC50 (hERG): 4.656 |
| CCN(CC)CCNC(=O)c1c(C)[nH]c(/C=C2\C(=O)Nc3ccc(F)cc32)c1C [sunitinib] | 61.5 |  | 66.4 |  | 1 | 33.4 |  |
| Cc1cn([C@@H]2C[C@@H](O)[C@H](CO)O2)c(=O)[nH]c1=O [telbivudine] | 22.1 | 17.4 | 15.1 | 1100 |  | 714 | pIC50 (hERG; [2]): 3.374; IC50 (hERG; [3]): 423 µM |
| CC(C)(C)c1ccc(C(O)CCCN2CCC(C(O)(c3ccccc3)c3ccccc3)CC2)cc1 (centres unmarked) [terfenadine] | 98 |  | 99 |  |  |  |  |
| CC(CC(c1ccccc1)c1ccccc1)NC(C)(C)C (centres unmarked) [terodiline] | 95.4 |  | 100 | 7.4 | 1 | 4.8 |  |
| CSc1ccc2c(c1)N(CCC1CCCCN1C)c1ccccc1S2 (centres unmarked) [thioridazine] | 82.9 |  | 99.3 |  |  |  |  |
| C[C@@H](c1ncncc1F)[C@](O)(Cn1cncn1)c1ccc(F)cc1F [voriconazole] | 40.9 |  | 15.8 | 1550 |  | 414 |  |
| chlorpromazine |  |  |  |  |  |  | pIC50 (hERG; [2]): 5.824; HERG-pIC50 (hERG; [6]): 5.824; HERG-maxinhib (hERG; [7]): 96.7; IC50 (hERG; read-out: HERG-IC50, experimental data, Kramer et al. 2013): 1.5 µM; CAV1p2-pIC50 (Cav1.2; [6]): 5.469; CAV1p2-maxinhib (Cav1.2; [7]): 99.2; IC50 (Cav1.2; read-out: CAV1p2-IC50, experimental data, Kramer et al. 2013): 3.4 µM; NAV1p5-pIC50 (Nav1.5; [6]): 5.523; NAV1p5-maxinhib (Nav1.5; [7]): 97.1; IC50 (Nav1.5; read-out: NAV1p5-IC50, experimental data, Kramer et al. 2013): 3 µM; Free drug (experimental data file, Kramer et al. 2013): 0.038 µM; pFD (negative log of free drug): 7.42 |
| cilostazol | 24.6 | 65.9 | 22.9 | 93.7 | 1 | 91.2 | pIC50 (hERG; [2]): 4.86; IC50 (hERG; [3]): 13.8 µM |
